Test results taken from paper PMC4812296, “A chemical family-based strategy for uncovering hidden bioactive molecules and multicomponent interactions in herbal medicines” (Scientific Reports, 2016).

Target: T1, thrombin (Bos taurus, UniProt P00735)
T1 construct: gene F2
Assay: chromogenic S-2238 hydrolysis assay, bovine plasma thrombin
Assay type: biochemical

| Compound | IC50 [µM] |
| --- | --- |
| Cc1coc2c1C(=O)C(=O)c1c-2ccc2c1CCCC2(C)C [peak 18, Tanshinone IIA] | 39 ± 1 |
| Cc1cccc2c3c(ccc12)C1=C(C(=O)C3=O)[C@@H](C)CO1 (single isomer, unassigned) [peak 15, Dihydrotanshinone I] | 92 ± 5 |
| Cc1coc2c1C(=O)C(=O)c1c-2ccc2c(C)cccc12 [peak 17, Tanshinone I] | 333 ± 28 |
| C[C@H]1COC2=C1C(=O)C(=O)c1c2ccc2c1CCCC2(C)C (single isomer, unassigned) [peak 16, Cryptotanshinone] | 102 ± 4 |
